Assay: Determination of drug stability: testosterone impurities/degradants in hot-melt extruded composition by HPLC
Type: physicochemical
Protocol: Testosterone and any other ingredients were added to the wet granulated excipient mixture prepared according to Example 1. The blend was extruded as a monolayer film using a having a barrel temperature of 135° C. The moisture content of the blend prior to extrusion was 3.1%. The HME composition is then analyzed by HPLC according to Example 4 to determine the amount of degradants present.
Twenty doses were sampled from a HME composition at the beginning, middle and end of the extrusion run a formulation. Composites of 10 doses were analyzed in duplicate for impurities by HPLC at each time point. The weight percent for each degradant was determined. Specific degradants analyzed include: 6B-Hydroxy-testosterone, 4-Androsten-16-alpha-ol-3,17-dione, Epi-Testosterone and unidentified degradants. The HPLC method employed will vary according to the drug included in the HME composition. Such methods are found in HPLC in the Pharmaceutical Industry (edited by Godwin W. Fong, Stanley K. Lam, New York: M. Dekker, 1991) or HPLC Methods for Pharmaceutical Analysis (by George Lunn and Norman R. Schmuff. New York: John Wiley & Sons, 1997), the disclosures of which are hereby incorporated by reference.

[1] = HME composition extruded at 135 ° C.
[2] = HME composition extruded at 145 ° C.
[3] = HME composition, granulation fluid Aqueous Ethanol
[4] = HME composition, granulation fluid Water

C[C@]12CC[C@H]3[C@@H](CCC4=CC(=O)CC[C@@]43C)[C@@H]1CC[C@@H]2O [testosterone]
Total Unknown Impurities (%) (HME composition (PolyOx, Poloxamer wet granulated with water, Carbopol) extruded at 135 ° C.): 0.1%
Total Unknown Impurities (%) (HME composition (PolyOx, Poloxamer wet granulated with water, Carbopol) extruded at 145 ° C.): 0.4%
4-Androsten-16-alpha-ol-3,17-dione (%) [1]: ND (ND denotes below the limit of quantitation using the HPLC method detailed herein. In this case, ND means less than 0.1% by wt.)
6B-Hydroxy-testosterone (%) [1]: ND (ND denotes below the limit of quantitation using the HPLC method detailed herein. In this case, ND means less than 0.1% by wt.)
Epi-Testosterone (%) [1]: ND (ND denotes below the limit of quantitation using the HPLC method detailed herein. In this case, ND means less than 0.1% by wt.)
4-Androsten-16-alpha-ol-3,17-dione (%) [2]: ND (ND denotes below the limit of quantitation using the HPLC method detailed herein. In this case, ND means less than 0.1% by wt.)
6B-Hydroxy-testosterone (%) [2]: 0.15%
Epi-Testosterone (%) [2]: ND (ND denotes below the limit of quantitation using the HPLC method detailed herein. In this case, ND means less than 0.1% by wt.)
4-Androsten-16-alpha-ol-3,17-dione (%) [3]: 0.00-0.20%
6B-Hydroxy-testosterone (%) [3]: 0.00-0.20%
Epi-Testosterone (%) [3]: 0.00-0.50%
Total Unknown Impurities (%) (HME composition, granulation fluid Aqueous Ethanol (50:50 water/ethanol)): 0.00-0.75%
4-Androsten-16-alpha-ol-3,17-dione (%) [4]: 0.10-0.50%
6B-Hydroxy-testosterone (%) [4]: 0.10-0.50%
Epi-Testosterone (%) [4]: 0.00-0.50%
Total Unknown Impurities (%) [4]: 0.50-1.00%
